One assay has as its system responder T cells. Nature of the assay: Mixed lymphocyte reaction (MLR), T cell proliferation. In kind it is cell-based. The following applies: [3H]thymidine incorporation after 48 h, read-out: IC50, inhibition of MLR-mediated T-cell proliferation. As for the experimental part: For MLR cultures 4×10^5 responder T cells are incubated in duplicates with 2×10^5 mitomycin C-treated allogeneic stimulator T cells in a total volume of 200 μl RPMI 1640 medium supplemented with 10% FCS, 2 mM L-glutamine, 100 U/ml penicillin and 100 μg/ml streptomycin (Gibco Life Technologies) in 96 well tissue culture plates (655180, flat bottom, Greiner). Cells are maintained at 37° C. in a humidified atmosphere of 5% CO2. After 48 h of growth, cells are pulsed with 1 μCi [^3H]thymidine and incorporation of [^3H]thymidine is measured with a Topcount radioactive counter (Packard). To investigate the effect of a test compound on MLR-mediated T cell proliferation six three-fold dilution steps in duplicates per test compound are performed (final DMSO concentration 0.1%). Low control values are the proliferation of responder cells alone; high controls are from mixed lymphocyte cells without any test samples. Low controls are subtracted from all values. The inhibition obtained in the presence of a test compound is calculated as percent Inhibition of the high control. The concentration of test compounds resulting in 50% inhibition (IC50) is determined from the dose-response curves. The examples 91, 128, 133 and 137 inhibit MLR-mediated T-cell proliferation in this assay with an IC50<1 μM.

In the next assay the target is T1, PKCβ1 (Homo sapiens, UniProt P05771).
T1 construct: purchased Panvera
Nature of the assay: Protein Kinase Cβ1 assay (SPA). It counts as biochemical. The settings on record: human recombinant PKCβ1, SPA, biotinylated PKCα pseudosubstrate, 0.5 mM CaCl2; read-out: IC50, inhibition of PKC β1. As for the experimental part: (§1) The compounds of formula 1 are tested for their activity on different protein kinases and PKC isoforms using a scintillation proximity assay (SPA, Amersham International plc). ^33P-labeled peptides are captured onto streptavidin coated yttrium silicate SPA beads. β-particles, emitted from the captured ^33P-labeled substrate in close proximity to the bead are able to excite the scintillant, resulting in the generation of quantifiable light. The assay is performed in a 96-well polystyrene microtiterplate (1450-514, Isoplates, Wallac, Turku, Finland). The reaction mixture (50 μl) contains 10 μl of the test compound together with 10 μl of the relevant kinase, diluted in the relevant dilution buffer, 5 μl of 10 μM phorbol myristate acetate (PMA) in H2O, 5 μl of 1.6 mM phosphatidylserine (Sigma-Aldrich Chemie GmbH, Stein-heim, Germany) in 20 mM Tris/HCL buffer pH 7.4, 5 μl of 0.3% BSA in H2O, 5 μl of 30 μM relevant substrate and 10 μl of 5 μM ATP and 0.1 μCi of ^33P-ATP (Amersham, Freiburg, Germany) in 200 mM Tris/HCL pH 7.5 and 200 mM MgCl2. Incubation is performed for 40 min at room temperature (RT) without shaking. Reaction is stopped by adding 150 μl of cold stop solution containing 10 mM ATP, 5 mM EGTA pH 7.5, 0.1% Triton X-100 and 0.2 mg streptavidin coated yttrium silicate SPA beads (Amersham, RPNQ 0012). The sealed plate is incubated for 60 min at RT. Thereafter the MTP is counted in a Microbeta Jet (Wallac). IC50 measurement is performed on a routine basis by incubation a serial dilution of inhibitor at concentrations ranging between 0.01 and 100 μM according to the method described above. Background values are the signals of the reaction mixture without addition of the relevant kinase and are subtracted from all values. 100% values are the signals of the reaction mixture without addition of inhibitors.
Dependent on the efficacy of the inhibitors In the various test systems, corresponding IC50 values are calculated from concentration-inhibition curves by nonlinear regression analysis using the program GraphPad Prism (GraphPad Software Inc., San Diego, Calif.).
Human recombinant PKCβ1 was obtained from Panvera and is used under the assay conditions as described above (Section A.1). The enzyme is diluted in PKC dilution buffer containing 1 mM Hepes pH 7.4, 0.5 mM DTT and 0.001% Triton X-100. The assay additionally contains 0.5 mM CaCl2. The kinase reaction is performed with the biotinylated PKCα pseudosubstrate solved in H2O. The examples 29, 45, 52, 128 and 139 inhibit PKC β1 in this assay with an IC50 between 2 and 40 μM.

A further assay has as its target T2, Lck (Homo sapiens, UniProt P06239).
T2 construct: purchased Upstate (Dundee, UK)
As to the kind of experiment: Lck (p56Lck) assay (SPA). In kind it is biochemical. The settings on record: human recombinant Lck, read-out: IC50, inhibition of Lck. As for the experimental part: The compounds of formula 1 are tested for their activity on different protein kinases and PKC isoforms using a scintillation proximity assay (SPA, Amersham International plc). ^33P-labeled peptides are captured onto streptavidin coated yttrium silicate SPA beads. β-particles, emitted from the captured ^33P-labeled substrate in close proximity to the bead are able to excite the scintillant, resulting in the generation of quantifiable light. The assay is performed in a 96-well polystyrene microtiterplate (1450-514, Isoplates, Wallac, Turku, Finland). The reaction mixture (50 μl) contains 10 μl of the test compound together with 10 μl of the relevant kinase, diluted in the relevant dilution buffer, 5 μl of 10 μM phorbol myristate acetate (PMA) in H2O, 5 μl of 1.6 mM phosphatidylserine (Sigma-Aldrich Chemie GmbH, Stein-heim, Germany) in 20 mM Tris/HCL buffer pH 7.4, 5 μl of 0.3% BSA in H2O, 5 μl of 30 μM relevant substrate and 10 μl of 5 μM ATP and 0.1 μCi of ^33P-ATP (Amersham, Freiburg, Germany) in 200 mM Tris/HCL pH 7.5 and 200 mM MgCl2. […] Thereafter the MTP is counted in a Microbeta Jet (Wallac). […]
Human recombinant Lck was obtained from Upstate (Dundee, UK) and is used in a scintillation proximity assay described in Section A.1. […] Thereafter the MTP is counted in a Microbeta Jet (Wallac). […] IC50 values are calculated from the graph by sigmoidal curve fitting. […]

The next assay addresses T3, Rsk1 (Homo sapiens, UniProt Q15418).
T3 construct: purchased Upstate ltd, Dundee, UK (external KinaseProfiler service)
Nature of the assay: Rsk1 KinaseProfiler assay (Upstate). It counts as biochemical. The following applies: human recombinant Rsk, externally tested (IC50Profiler, Upstate), 10 μM ATP; read-out: IC50, inhibition of Rsk1. As for the experimental part: To investigate the effect of a test compound on p90 ribosomal S6 kinase (Rsk) family, the compounds are externally tested in KinaseProfiler assay (Upstate ltd, Dundee, UK) described in product guide brochure. In brief, in a final reaction volume of 25 μl, 5-10 mU of human recombinant Rsk are incubated with 8 mM MOPS pH 7.0, 0.2 mM EDTA, 30 μM KKKNRTLSVA, 10 mM MgAcetate and 10 μM [γ-33P-ATP]. The reaction is initiated by addition of the MgATP mix. After incubation for 40 minutes at RT, the reaction is stopped by the addition of 5 μl of a 3% phosphoric acid solution. 10 μl of the reaction is then spotted onto P30 filtermat and washed three times for 5 minutes in 75 mM phosphoric acid and once in methanol prior to drying and scintillation counting. The IC50 value is estimated by preparing a 10 point curve using a ½ log dilution series (IC50Profiler, Upstate). The examples 129, 431 and 173 inhibit Rsk1 in this assay with an IC50<1 μM.

In a further assay the target is T4, PKCι (Homo sapiens, UniProt P41743).
T4 construct: made in house; host or cells: Sf21 insect cells
T4 sequence (P41743 1-596): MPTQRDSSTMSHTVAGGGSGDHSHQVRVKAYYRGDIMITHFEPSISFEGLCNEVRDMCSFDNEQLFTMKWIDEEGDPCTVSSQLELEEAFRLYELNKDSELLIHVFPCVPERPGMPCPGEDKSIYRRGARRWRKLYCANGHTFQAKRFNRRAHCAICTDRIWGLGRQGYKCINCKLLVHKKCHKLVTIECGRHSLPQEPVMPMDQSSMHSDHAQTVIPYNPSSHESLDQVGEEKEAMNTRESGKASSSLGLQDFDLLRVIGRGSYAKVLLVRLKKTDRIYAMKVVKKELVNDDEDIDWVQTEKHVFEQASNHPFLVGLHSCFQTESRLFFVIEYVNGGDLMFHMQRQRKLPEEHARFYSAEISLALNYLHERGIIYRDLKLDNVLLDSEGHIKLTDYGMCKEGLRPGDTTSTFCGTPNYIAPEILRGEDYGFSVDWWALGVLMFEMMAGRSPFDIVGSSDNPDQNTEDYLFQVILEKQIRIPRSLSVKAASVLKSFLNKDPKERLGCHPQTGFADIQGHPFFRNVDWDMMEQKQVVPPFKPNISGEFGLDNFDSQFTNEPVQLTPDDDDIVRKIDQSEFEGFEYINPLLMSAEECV
Nature of the assay: Protein Kinase C ι assay (SPA). It counts as biochemical. The following applies: human recombinant PKCι from Sf21 insect cells, absence of PMA and phosphatidylserine, read-out: IC50, inhibition of PKC ι. As for the experimental part: as §1
Dependent on the efficacy of the inhibitors In the various test systems, corresponding IC50 values are calculated from concentration-inhibition curves by nonlinear regression analysis using the program GraphPad Prism (GraphPad Software Inc., San Diego, Calif.). […]

Structures can show the parent of a compound that is named as a salt.

T3 sequence (Q15418 whole entry): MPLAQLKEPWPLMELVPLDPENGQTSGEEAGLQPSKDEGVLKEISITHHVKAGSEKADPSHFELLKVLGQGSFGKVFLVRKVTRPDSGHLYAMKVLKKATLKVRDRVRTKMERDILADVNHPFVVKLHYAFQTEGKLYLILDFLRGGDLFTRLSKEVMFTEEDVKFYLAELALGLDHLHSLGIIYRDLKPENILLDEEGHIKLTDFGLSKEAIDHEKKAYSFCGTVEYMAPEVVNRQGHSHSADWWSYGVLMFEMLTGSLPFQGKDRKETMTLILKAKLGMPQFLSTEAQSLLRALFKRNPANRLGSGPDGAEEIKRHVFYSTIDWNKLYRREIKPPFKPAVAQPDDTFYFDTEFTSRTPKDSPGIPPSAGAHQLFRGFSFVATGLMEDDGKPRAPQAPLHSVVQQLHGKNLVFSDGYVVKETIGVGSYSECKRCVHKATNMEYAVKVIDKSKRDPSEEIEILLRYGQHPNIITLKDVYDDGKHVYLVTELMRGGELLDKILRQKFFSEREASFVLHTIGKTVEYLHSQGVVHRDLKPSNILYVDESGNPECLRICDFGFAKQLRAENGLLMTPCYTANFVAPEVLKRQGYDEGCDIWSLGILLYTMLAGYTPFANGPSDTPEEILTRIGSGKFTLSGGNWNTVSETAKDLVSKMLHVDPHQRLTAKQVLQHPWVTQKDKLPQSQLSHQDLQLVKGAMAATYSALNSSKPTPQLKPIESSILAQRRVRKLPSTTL
T2 sequence (P06239 whole entry): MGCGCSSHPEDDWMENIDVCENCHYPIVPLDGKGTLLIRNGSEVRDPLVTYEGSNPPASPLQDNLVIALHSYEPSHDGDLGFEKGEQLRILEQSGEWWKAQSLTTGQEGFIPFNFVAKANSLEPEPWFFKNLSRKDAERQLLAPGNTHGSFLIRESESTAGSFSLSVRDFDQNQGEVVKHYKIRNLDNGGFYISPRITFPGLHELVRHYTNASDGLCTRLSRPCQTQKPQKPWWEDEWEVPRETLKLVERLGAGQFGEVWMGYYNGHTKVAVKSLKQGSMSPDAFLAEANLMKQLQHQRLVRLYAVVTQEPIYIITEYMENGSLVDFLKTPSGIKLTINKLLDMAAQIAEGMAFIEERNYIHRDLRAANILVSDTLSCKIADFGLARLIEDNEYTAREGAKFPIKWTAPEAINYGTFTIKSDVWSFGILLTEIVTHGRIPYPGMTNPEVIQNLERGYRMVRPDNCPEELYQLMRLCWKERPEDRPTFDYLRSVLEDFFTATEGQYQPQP
T1 sequence (P05771 whole entry): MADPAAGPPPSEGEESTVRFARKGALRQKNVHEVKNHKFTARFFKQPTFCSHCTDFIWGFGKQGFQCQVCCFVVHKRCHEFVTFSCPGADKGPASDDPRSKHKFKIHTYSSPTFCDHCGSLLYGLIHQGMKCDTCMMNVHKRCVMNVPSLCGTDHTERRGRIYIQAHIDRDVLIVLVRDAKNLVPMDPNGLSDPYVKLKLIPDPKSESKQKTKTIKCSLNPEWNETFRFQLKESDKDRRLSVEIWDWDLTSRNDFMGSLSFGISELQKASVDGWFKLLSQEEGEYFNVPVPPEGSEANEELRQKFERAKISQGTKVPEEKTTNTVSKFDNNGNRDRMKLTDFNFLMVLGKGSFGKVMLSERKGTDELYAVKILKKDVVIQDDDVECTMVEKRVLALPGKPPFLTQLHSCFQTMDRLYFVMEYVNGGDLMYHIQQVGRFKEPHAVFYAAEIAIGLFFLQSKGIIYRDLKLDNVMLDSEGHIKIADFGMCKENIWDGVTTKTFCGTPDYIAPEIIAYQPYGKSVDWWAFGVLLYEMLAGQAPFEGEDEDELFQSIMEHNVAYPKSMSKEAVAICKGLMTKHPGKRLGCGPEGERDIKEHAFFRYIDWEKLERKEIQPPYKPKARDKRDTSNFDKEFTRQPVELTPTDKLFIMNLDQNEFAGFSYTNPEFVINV

As to `CN(C)CCCn1ccc2cc(-c3cc(Nc4ccc(NS(=O)(=O)c5c(F)cccc5F)cc4)ncn3)ccc21` [Example 128, N-(4-{6-[1-(3-Dimethylamino-propyl)-1H-indol-5-yl]-pyrimidin-4-ylamino}-phenyl)-2,6-difluoro-benzenesulfonamide], the IC50 in the assay with responder T cells is under 1 µM; on PKCβ1 it was 2 to 40 µM; at Lck it was under 3 µM. As to `CN(C)CCCn1ccc2cc(-c3cc(Nc4ccc(NS(=O)(=O)c5ccccc5F)cc4)ncn3)ccc21` [Example 129, N-(4-{6-[1-(3-Dimethylamino-propyl)-1H-indol-5-yl]-pyrimidin-4-ylamino}-phenyl)-2-fluorobenzenesulfonamide], the IC50 on Rsk1 was under 1 µM. As to `COc1ccc(S(=O)(=O)Nc2ccc(Nc3cc(-c4ccc5c(ccn5CCCN(C)C)c4)ncn3)cc2)cc1` [Example 131, N-(4-[6-[1-(3-Dimethylamino-propyl)-1H-indol-5-yl]pyrimidin-4-ylamino]phenyl)-4-methoxy-benzenesulfonamide], the IC50 on Lck was under 3 µM.

With `CCN(CC)CCCn1cc(-c2cc(Nc3ccc(NS(=O)(=O)c4c(F)cccc4F)cc3)ncn2)c2ccccc21` [Example 173, N-(4-{6-[1-(3-Diethylamino-propyl)-1H-indol-3-yl]-pyrimidin-4-ylamino}-phenyl)-2,6-difluoro-benzenesulfonamide formic acid salt], the IC50 on PKCι was 7 to 34 µM; at Rsk1, under 1 µM.

The record behind these values is US20080242681A1, “N-4-(6-(Hetero)Aryl-Pyrimidin-4-Ylaminophenyl)-Benzenesulfonamides as Kinase Inhibitors” (Altana Pharma AG, priority 2004, published 2008).
